# US8778941B2, “TRPM8 antagonists and their use in treatments” (AMGEN Inc., priority 2011, dated 2014)
# Biological target: T1, human TRPM8 (Homo sapiens, UniProt Q7Z2W7)
# T1 construct: expressed in transfected cells; host or cells: Chinese hamster ovary (CHO) cells, T-REx tetracycline-inducible expression system (Invitrogen), co-transfected with pcDNA3.1 jellyfish aequorin
# Experiment: Luminescence readout assay for measuring intracellular calcium (aequorin), hTRPM8 antagonism
# Type: cell-based
# Conditions: CHO cell line expressing human TRPM8 and aequorin; activation by icilin, L-menthol or cold buffer (table does not say which)
# T1 sequence (Q7Z2W7 whole entry): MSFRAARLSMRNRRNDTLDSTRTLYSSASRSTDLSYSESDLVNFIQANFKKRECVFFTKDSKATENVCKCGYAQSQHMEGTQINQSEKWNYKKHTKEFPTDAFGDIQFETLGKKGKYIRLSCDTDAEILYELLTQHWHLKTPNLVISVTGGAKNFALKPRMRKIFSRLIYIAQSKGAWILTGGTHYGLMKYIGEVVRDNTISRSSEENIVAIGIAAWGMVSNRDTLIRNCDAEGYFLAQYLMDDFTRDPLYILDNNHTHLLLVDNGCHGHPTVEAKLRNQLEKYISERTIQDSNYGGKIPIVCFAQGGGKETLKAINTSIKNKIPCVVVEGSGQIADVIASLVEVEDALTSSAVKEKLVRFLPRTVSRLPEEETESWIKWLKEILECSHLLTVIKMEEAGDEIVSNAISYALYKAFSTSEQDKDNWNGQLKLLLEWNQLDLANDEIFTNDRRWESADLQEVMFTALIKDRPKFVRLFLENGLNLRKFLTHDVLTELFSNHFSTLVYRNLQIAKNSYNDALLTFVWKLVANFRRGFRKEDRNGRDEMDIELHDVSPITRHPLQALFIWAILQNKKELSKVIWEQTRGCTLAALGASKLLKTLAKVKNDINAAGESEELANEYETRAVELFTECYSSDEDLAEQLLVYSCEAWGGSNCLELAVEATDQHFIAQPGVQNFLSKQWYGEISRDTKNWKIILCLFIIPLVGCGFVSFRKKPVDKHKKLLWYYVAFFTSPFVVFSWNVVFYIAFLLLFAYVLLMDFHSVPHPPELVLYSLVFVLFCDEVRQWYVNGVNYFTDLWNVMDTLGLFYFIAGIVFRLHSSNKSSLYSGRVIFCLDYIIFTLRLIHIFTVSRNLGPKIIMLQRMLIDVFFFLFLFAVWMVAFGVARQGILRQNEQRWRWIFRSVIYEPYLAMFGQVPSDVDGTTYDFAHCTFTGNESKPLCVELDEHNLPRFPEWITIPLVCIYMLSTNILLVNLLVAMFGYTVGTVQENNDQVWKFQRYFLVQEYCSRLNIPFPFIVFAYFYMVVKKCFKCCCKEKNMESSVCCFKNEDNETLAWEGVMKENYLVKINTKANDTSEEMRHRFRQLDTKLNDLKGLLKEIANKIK
row,IC50 [nM],SMILES
1,561,"O=C(NCc1ccc(Br)cc1)N[C@@H](c1ccc(C(F)(F)F)cc1)c1ncccc1C(F)(F)F [Example 125, (S)-1-(4-bromobenzyl)-3-((4-(trifluoro-methyl)-phenyl)(3-(trifluoro-methyl)-pyridin-2-yl)-methyl)urea (2,2,2-trifluoro-acetate)]"
2,399,"COc1ccc([C@H](C)NC(=O)N[C@@H](c2ccc(C(F)(F)F)cc2)c2ncccc2C(F)(F)F)cc1 [Example 80, 1-((S)-1-(4-methoxy-phenyl)ethyl)-3-((S)-(4-(trifluoro-methyl)-phenyl)(3-(trifluoro-methyl)-pyridin-2-yl)-methyl)urea (2,2,2-trifluoro-acetate)]"
3,1300,"Cc1ccc([N+](=O)[O-])c(NC(=O)N[C@@H](c2ccc(C(F)(F)F)cc2)c2ncccc2C(F)(F)F)c1 [Example 143, (S)-1-(5-methyl-2-nitrophenyl)-3-((4-(trifluoro-methyl)-phenyl)(3-(trifluoro-methyl)-pyridin-2-yl)-methyl)urea (2,2,2-trifluoro-acetate)]"
4,62,"O=C(Nc1cncnc1)N[C@@H](c1ccc(C(F)(F)F)c(F)c1)c1ncccc1C(F)(F)F [Example 155, (S)-1-((3-fluoro-4-(trifluoro-methyl)-phenyl)(3-(trifluoro-methyl)-pyridin-2-yl)-methyl)-3-(pyrimidin-5-yl)urea (2,2,2-trifluoro-acetate)]"
5,122,"CC(C)(C)NC(=O)N[C@@H](c1ccc(C(F)(F)F)cc1)c1ncccc1Br [Example 41, (S)-1-((3-bromopyridin-2-yl)(4-(trifluoro-methyl)-phenyl)-methyl)-3-(tert-butyl)-urea]"
6,560,"COc1ccc(C)cc1NC(=O)N[C@@H](c1ccc(C(F)(F)F)cc1)c1ncccc1C(F)(F)F [Example 183, (S)-1-(2-methoxy-5-methylphenyl)-3-((4-(trifluoro-methyl)phenyl) (3-(trifluoro-methyl)pyridin-2-yl)methyl)urea (2,2,2-trifluoro-acetate)]"
7,3790,"COc1ccc([C@@H](C)NC(=O)N[C@@H](c2ccc(C(F)(F)F)cc2)c2ncccc2C(F)(F)F)cc1 [Example 130, 1-((R)-1-(4-methoxy-phenyl)ethyl)-3-((S)-(4-(trifluoro-methyl)-phenyl)(3-(trifluoro-methyl)-pyridin-2-yl)-methyl)urea (2,2,2-trifluoro-acetate)]"
8,670,"O=C(NC1CCN(C(=O)OCc2ccccc2)CC1)N[C@@H](c1ccc(C(F)(F)F)cc1)c1ncccc1C(F)(F)F [Example 75, (S)-benzyl 4-(3-((4-(trifluoro-methyl)-phenyl)(3-(trifluoro-methyl)-pyridin-2-yl)-methyl)-ureido)-piperidine-1-carboxylate (2,2,2-trifluoro-acetate)]"
9,31,"CC(=O)c1cccc(NC(=O)N[C@@H](c2ccc(C(F)(F)F)cc2)c2ncccc2C(F)(F)F)c1 [Example 86, (S)-1-(3-acetylphenyl)-3-((4-(trifluoro-methyl)-phenyl)(3-(trifluoro-methyl)-pyridin-2-yl)-methyl)urea (2,2,2-trifluoro-acetate)]"
10,2180,"Cc1c(NC(=O)N[C@@H](c2ccc(C(F)(F)F)cc2)c2ncccc2C(F)(F)F)cccc1[N+](=O)[O-] [Example 142, (S)-1-(2-methyl-3-nitrophenyl)-3-((4-(trifluoro-methyl)-phenyl)(3-(trifluoro-methyl)-pyridin-2-yl)-methyl)urea (2,2,2-trifluoro-acetate)]"
11,1710,"CCOC(=O)[C@H](C)NC(=O)N[C@@H](c1ccc(C(F)(F)F)cc1)c1ncccc1C(F)(F)F [Example 94, (S)-ethyl 2-(3-((S)-(4-(trifluoro-methyl)-phenyl)(3-(trifluoro-methyl)-pyridin-2-yl)-ureido)-propanoate (2,2,2-trifluoro-acetate)]"
12,142,"O=C(Nc1cccc([N+](=O)[O-])c1)N[C@@H](c1ccc(C(F)(F)F)cc1)c1ncccc1C(F)(F)F [Example 100, (S)-1-(3-nitrophenyl)-3-((4-(trifluoro-methyl)-phenyl)(3-(trifluoro-methyl)-pyridin-2-yl)-methyl)urea (2,2,2-trifluoro-acetate)]"
13,593,"O=C(Nc1cccnc1)N[C@@H](c1cccc(F)c1)c1ncccc1C(F)(F)F [Example 8, (S)-1-((3-fluorophenyl)-(3-(trifluoro-methyl)-pyridin-2-yl)-methyl)-3-(pyridin-3-yl)-urea]"
14,866,"O=C(Nc1c(Br)cc(F)cc1Br)N[C@@H](c1ccc(C(F)(F)F)cc1)c1ncccc1C(F)(F)F [Example 63, (S)-1-(2,6-dibromo-4-fluorophenyl)-3-((4-(trifluoro-methyl)-phenyl)(3-(trifluoro-methyl)-pyridin-2-yl)-methyl)urea (2,2,2-trifluoro-acetate)]"
15,66,"CC(C)NC(=O)N[C@@H](c1ccc(C(F)(F)F)cc1)c1ncccc1C(F)(F)F [Example 32, (S)-1-isopropyl-3-((4-(trifluoro-methyl)-phenyl)(3-(trifluoro-methyl)-pyridin-2-yl)-methyl)urea]"
16,50,"Cc1noc(C)c1NC(=O)N[C@@H](c1ccc(C(F)(F)F)cc1)c1ncccc1C(F)(F)F [Example 55, (S)-1-(3,5-dimethylisoxazol-4-yl)-3-((4-(trifluoro-methyl)-phenyl)(3-(trifluoro-methyl)-pyridin-2-yl)-metyl)urea]"

row,IC50 [nM],SMILES
1,172,"O=C(Nc1cccnc1)N[C@@H](c1cccc(Cl)c1)c1ncccc1C(F)(F)F [Example 3, (S)-1-((3-chlorophenyl)-(3-(trifluoro-methyl)-pyridin-2-yl)-methyl)-3-(pyridin-3-yl)-urea]"
2,209,"O=C(Nc1c(F)cccc1F)N[C@@H](c1ccc(C(F)(F)F)cc1)c1ncccc1C(F)(F)F [Example 50, (S)-1-(2,6-difluoro-phenyl)-3-((4-(trifluoro-methyl)-phenyl)(3-(trifluoro-methyl)-pyridin-2-yl)-methyl)urea]"
3,559,"COc1cccc(CCNC(=O)N[C@@H](c2ccc(C(F)(F)F)cc2)c2ncccc2C(F)(F)F)c1OC [Example 82, (S)-1-(2,3-dimethoxy-phenethyl)-3-((4-(trifluoro-methyl)-phenyl)(3-(trifluoro-methyl)-pyridin-2-yl)-methyl)urea (2,2,2-trifluoro-acetate)]"
4,545,"C=C(C)c1cccc(C(C)(C)NC(=O)N[C@@H](c2ccc(C(F)(F)F)cc2)c2ncccc2C(F)(F)F)c1 [Example 105, (S)-1-(2-(3-(prop-1-en-2-yl)phenyl)-propan-2-yl)-3-((4-(trifluoro-methyl)-phenyl)(3-(trifluoro-methyl)-pyridin-2-yl)-methyl)urea (2,2,2-trifluoro-acetate)]"
5,1300,"Cc1ccc(NC(=O)N[C@@H](c2ccc(C(F)(F)F)cc2)c2ncccc2C(F)(F)F)cc1[N+](=O)[O-] [Example 140, (S)-1-(4-methyl-3-nitrophenyl)-3-((4-(trifluoro-methyl)-phenyl)(3-(trifluoro-methyl)-pyridin-2-yl)-methyl)urea (2,2,2-trifluoro-acetate)]"
6,1550,"CCOC(=O)c1ccc(NC(=O)N[C@@H](c2ccc(C(F)(F)F)cc2)c2ncccc2C(F)(F)F)cc1 [Example 187, (S)-ethyl 4-(3-((4-(trifluoro-methyl)phenyl) (3-(trifluoro-methyl)pyridin-2-yl)methyl)ureido)benzoate (2,2,2-trifluoro-acetate)]"
7,142,"O=C(Nc1ccccc1Cl)N[C@@H](c1ccc(C(F)(F)F)cc1)c1ncccc1C(F)(F)F [Example 181, (S)-1-(2-chlorophenyl)-3-((4-(trifluoro-methyl)phenyl) (3-(trifluoro-methyl)pyridin-2-yl)methyl)urea (2,2,2-trifluoro-acetate)]"
8,712,"CC[C@H](C)C(NC(=O)N[C@@H](c1ccc(C(F)(F)F)cc1)c1ncccc1C(F)(F)F)C(=O)OC (stereo partly drawn) [Example 99, (3S)-methyl 3-methyl-2-(3-((S)-(4-(trifluoro-methyl)-phenyl)(3-(trifluoro-methyl)-pyridin-2-yl)-methyl)-ureido)-pentanoate (2,2,2-trifluoro-acetate)]"
9,390,"O=C(NCCc1ccc2c(c1)OCO2)N[C@@H](c1ccc(C(F)(F)F)cc1)c1ncccc1C(F)(F)F [Example 36, (S)-1-(2-(benzo[d][1,3]dioxol-5-yl)-ethyl)-3-((4-(trifluoro-methyl)-phenyl)(3-(trifluoro-methyl)-pyridin-2-yl)-methyl)urea (2,2,2-trifluoro-acetate)]"
10,4050,"COC(=O)[C@H](Cc1ccccc1)NC(=O)N[C@@H](c1ccc(C(F)(F)F)cc1)c1ncccc1C(F)(F)F [Example 136, (S)-methyl 3-phenyl-2-(3-((S)-(4-(trifluoro-methyl)-phenyl)(3-(trifluoro-methyl)-pyridin-2-yl)-methyl)-ureido)-propanoate (2,2,2-trifluoro-acetate)]"
11,3560,"N#Cc1ccc(NC(=O)N[C@@H](c2ccc(C(F)(F)F)cc2)c2ncccc2C(F)(F)F)cc1 [Example 46, (S)-1-(4-cyanophenyl)-3-((4-(trifluoro-methyl)-phenyl)(3-(trifluoro-methyl)-pyridin-2-yl)-methyl)urea]"
12,67,"CCCc1cccnc1[C@@H](NC(=O)Nc1cccnc1)c1ccc(C(F)(F)F)cc1 [Example 168, (S)-1-((3-Propylpyridin-2-yl)(4-(trifluoromethyl)phenyl)-methyl)-3-(pyridin-3-yl)urea]"
13,674,"O=C(Nc1cccnc1)NC(c1cc(F)cc(Cl)c1)c1ncccc1F (stereo not shown) [Example 24, 1-((3-chloro-5-fluoro-phenyl)(3-fluoropyridin-2-yl)methyl)-3-(pyridin-3-yl)urea (2,2,2-trifluoro-acetate)]"
14,915,"O=C(Nc1ccc(F)cc1)NC(c1ccccc1)c1ccc(C(F)(F)F)cc1 (stereo not shown) [Example 171, 1-(4-Fluorophenyl)-3-(phenyl(4-(trifluoromethyl)phenyl)-methyl)urea]"
15,1310,"O=C(Nc1cccnc1)N[C@@H](c1ccccc1)c1ncccc1C(F)(F)F [Example 20, (S)-1-(phenyl(3-(trifluoro-methyl)-pyridin-2-yl)-methyl)-3-(pyridin-3-yl)-urea]"
